This assay addresses T1, BCL6 (Homo sapiens, UniProt P41182).
T1 construct: endogenous in cells; host or cells: T47D breast cancer epithelial cells
Description: Immunofluorescence protocol for high content imaging of BCL6 (degradation) in T47D cells, 3 days compound treatment. The format is cell-based. The settings on record: for Dmax: T47D, read-out: Mean Dmax (%)** category; for DC50: read-out: Mean DC50 (nM)* category. In a few lines:
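Read-out: high-content imaging of anti-BCL6 immunofluorescence (Alexa-488 secondary) with CellMask and Hoechst counterstains, 10×, 4 fields/well. Cells had 3 days of compound exposure at 37° C, 5% CO2, 11-point 3-fold series from a final top of 0.1 or 1 μM.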

SMILES strings stand for the structures. Some results are limits rather than exact numbers.

Consider 15 molecules from patent US11986532B2 (Arvinas Operations, Inc., priority 2021, dated 2024).

As a reminder, the Dmax is the greatest extent of degradation seen. Usually DC50 stands for the concentration at which degradation of the target reaches its halfway point. In the case of `CNC(=O)COc1cc2cc(Nc3nc(N4CCC(O[C@H]5C[C@H](N6CC7(CCN(c8ccc9c(c8)CN(C8CCC(=O)NC8=O)C9=O)CC7)C6)C5)CC4)ncc3Cl)ccc2n(C(C)C)c1=O` (stereo partly drawn) [Compound 369, 2-({6-[(5-chloro-2-{4-[(1r,3r)-3-{7-[2-(2,6-dioxopiperidin-3-yl)-1-oxo-2,3-dihydro-1H-isoindol-5-yl]-2,7-diazaspiro[3.5]nonan-2-yl}cyclobutoxy]piperidin-1-yl}pyrimidin-4-yl)amino]-2-oxo-1-(propan-2-yl)-1,2-dihydroquinolin-3-yl}oxy)-N-methylacetamide], the maximal degradation (Dmax) was no less than 70% and the 50% degradation concentration (DC50) was less than 10 nM.
For `CNC(=O)COc1cc2cc(Nc3nc(N4CCC(O[C@H]5C[C@H](N6CC7CCC(C6)N7c6ccc7c(c6)C(=O)N(C6CCC(=O)NC6=O)C7=O)C5)CC4)ncc3Cl)ccc2n(C(C)C)c1=O` (stereo partly drawn) [Compound 370, 2-({6-[(5-chloro-2-{4-[(1r,3r)-3-{8-[2-(2,6-dioxopiperidin-3-yl)-1,3-dioxo-2,3-dihydro-1H-isoindol-5-yl]-3,8-diazabicyclo[3.2.1]octan-3-yl}cyclobutoxy]piperidin-1-yl}pyrimidin-4-yl)amino]-2-oxo-1-(propan-2-yl)-1,2-dihydroquinolin-3-yl}oxy)-N-methylacetamide], the greatest degradation seen (Dmax) is less than 50% and the DC50 lay within 10 to 50 nM.
Regarding `CNC(=O)COc1cc2cc(Nc3nc(N4CCC(O[C@H]5C[C@H](N6CC7CCC(C6)N7c6ccc7c(c6)CN(C6CCC(=O)NC6=O)C7=O)C5)CC4)ncc3Cl)ccc2n(C(C)C)c1=O` (stereo partly drawn) [Compound 371, 2-({6-[(5-chloro-2-{4-[(1r,3r)-3-{8-[2-(2,6-dioxopiperidin-3-yl)-1-oxo-2,3-dihydro-1H-isoindol-5-yl]-3,8-diazabicyclo[3.2.1]octan-3-yl}cyclobutoxy]piperidin-1-yl}pyrimidin-4-yl)amino]-2-oxo-1-(propan-2-yl)-1,2-dihydroquinolin-3-yl}oxy)-N-methylacetamide], the Dmax is less than 50% and the DC50 was less than 10 nM.
The like results for `CNC(=O)COc1cc2cc(Nc3nc(N4CCC(O[C@H]5C[C@H](N6C7CCC6CN(c6ccc8c(c6)C(=O)N(C6CCC(=O)NC6=O)C8=O)C7)C5)CC4)ncc3Cl)ccc2n(C(C)C)c1=O` (stereo partly drawn) [Compound 372, 2-({6-[(5-chloro-2-{4-[(1r,3r)-3-{3-[2-(2,6-dioxopiperidin-3-yl)-1,3-dioxo-2,3-dihydro-1H-isoindol-5-yl]-3,8-diazabicyclo[3.2.1]octan-8-yl}cyclobutoxy]piperidin-1-yl}pyrimidin-4-yl)amino]-2-oxo-1-(propan-2-yl)-1,2-dihydroquinolin-3-yl}oxy)-N-methylacetamide] were, in that order, 50 to 70% and less than 10 nM.
The like results for `CNC(=O)COc1cc2cc(Nc3nc(N4CCC(CN5CCC6(CC5)CC5(CN(c7ccc8c(c7)C(=O)N(C7CCC(=O)NC7=O)C8=O)C5)C6)CC4)ncc3Cl)ccc2n(C(C)C)c1=O` (stereo not drawn) [Compound 373, 2-{[6-({5-chloro-2-[4-({2-[2-(2,6-dioxopiperidin-3-yl)-1,3-dioxo-2,3-dihydro-1H-isoindol-5-yl]-2,9-diazadispiro[3.1.5^6.1^4]dodecan-9-yl}methyl)piperidin-1-yl]pyrimidin-4-yl}amino)-2-oxo-1-(propan-2-yl)-1,2-dihydroquinolin-3-yl]oxy}-N-methylacetamide] were, in that order, no less than 70% and less than 10 nM.
In the same order, the values of `CNC(=O)COc1cc2cc(Nc3nc(N4CCC(CN5CCC6(CC5)CC5(CN(c7cccc8c7C(=O)N(C7CCC(=O)NC7=O)C8=O)C5)C6)CC4)ncc3Cl)ccc2n(C(C)C)c1=O` (stereo not drawn) [Compound 374, 2-{[6-({5-chloro-2-[4-({2-[2-(2,6-dioxopiperidin-3-yl)-1,3-dioxo-2,3-dihydro-1H-isoindol-4-yl]-2,9-diazadispiro[3.1.5^6.1^4]dodecan-9-yl}methyl)piperidin-1-yl]pyrimidin-4-yl}amino)-2-oxo-1-(propan-2-yl)-1,2-dihydroquinolin-3-yl]oxy}-N-methylacetamide] are no less than 70% and less than 10 nM.
`CNC(=O)COc1cc2c(F)c(Nc3nc(N4CCC(CN5CCC6(CC5)CN(c5ccc7c(c5)C(=O)N(C5CCC(=O)NC5=O)C7=O)C6(C)C)CC4)ncc3Cl)ccc2n(C(C)C)c1=O` (stereo not drawn) [Compound 375, 2-{[6-({5-chloro-2-[4-({2-[2-(2,6-dioxopiperidin-3-yl)-1,3-dioxo-2,3-dihydro-1H-isoindol-5-yl]-1,1-dimethyl-2,7-diazaspiro[3.5]nonan-7-yl}methyl)piperidin-1-yl]pyrimidin-4-yl}amino)-5-fluoro-2-oxo-1-(propan-2-yl)-1,2-dihydroquinolin-3-yl]oxy}-N-methylacetamide]: the Dmax was no less than 70% and the DC50 is less than 10 nM.
In the same order, the values of `CNC(=O)COc1cc2c(F)c(Nc3nc(N4CCC(CN5CCC6(CN(c7ccc8c(c7F)CN(C7CCC(=O)NC7=O)C8=O)C6)C(F)(F)C5)CC4)ncc3Cl)ccc2n(C(C)C)c1=O` (stereo not drawn) [Compound 376, 2-{[6-({5-chloro-2-[4-({2-[2-(2,6-dioxopiperidin-3-yl)-4-fluoro-1-oxo-2,3-dihydro-1H-isoindol-5-yl]-5,5-difluoro-2,7-diazaspiro[3.5]nonan-7-yl}methyl)piperidin-1-yl]pyrimidin-4-yl}amino)-5-fluoro-2-oxo-1-(propan-2-yl)-1,2-dihydroquinolin-3-yl]oxy}-N-methylacetamide] are no less than 70% and less than 10 nM.
The like results for `CNC(=O)COc1cc2cc(Nc3nc(N4CCC(O[C@H]5C[C@H](N6CC7(CCN(c8ccc9c(c8)C(=O)N(C8CCC(=O)NC8=O)C9)CC7)C6)C5)CC4)ncc3Cl)ccc2n(C(C)C)c1=O` (stereo partly drawn) [Compound 377, 2-({6-[(5-chloro-2-{4-[(1r,3r)-3-{7-[2-(2,6-dioxopiperidin-3-yl)-3-oxo-2,3-dihydro-1H-isoindol-5-yl]-2,7-diazaspiro[3.5]nonan-2-yl}cyclobutoxy]piperidin-1-yl}pyrimidin-4-yl)amino]-2-oxo-1-(propan-2-yl)-1,2-dihydroquinolin-3-yl}oxy)-N-methylacetamide] were, in that order, no less than 70% and 50 to 100 nM.
The like results for `CNC(=O)COc1cc2cc(Nc3nc(N4CCC(O[C@H]5C[C@H](N6CCN(c7cc(C)c8c(c7)C(=O)N(C7CCC(=O)NC7=O)C8=O)CC6)C5)CC4)ncc3Cl)ccc2n(C(C)C)c1=O` (stereo partly drawn) [Compound 378, 2-({6-[(5-chloro-2-{4-[(1r,3r)-3-{4-[2-(2,6-dioxopiperidin-3-yl)-7-methyl-1,3-dioxo-2,3-dihydro-1H-isoindol-5-yl]piperazin-1-yl}cyclobutoxy]piperidin-1-yl}pyrimidin-4-yl)amino]-2-oxo-1-(propan-2-yl)-1,2-dihydroquinolin-3-yl}oxy)-N-methylacetamide] were, in that order, 50 to 70% and 10 to 50 nM.
Regarding `CNC(=O)COc1cc2cc(Nc3nc(N4CCC(O[C@H]5C[C@H](N6CCN(c7cc(OC)c8c(c7)C(=O)N(C7CCC(=O)NC7=O)C8=O)CC6)C5)CC4)ncc3Cl)ccc2n(C(C)C)c1=O` (stereo partly drawn) [Compound 379, 2-({6-[(5-chloro-2-{4-[(1r,3r)-3-{4-[2-(2,6-dioxopiperidin-3-yl)-7-methoxy-1,3-dioxo-2,3-dihydro-1H-isoindol-5-yl]piperazin-1-yl}cyclobutoxy]piperidin-1-yl}pyrimidin-4-yl)amino]-2-oxo-1-(propan-2-yl)-1,2-dihydroquinolin-3-yl}oxy)-N-methylacetamide], the Dmax was in the range of 50 to 70% and the DC50 is less than 10 nM.
The like results for `CNC(=O)COc1cc2c(F)c(Nc3nc(N4CCC(O[C@H]5C[C@H](N6CCC(c7ccc8c(c7F)CN([C@H]7CCC(=O)NC7=O)C8=O)CC6)C5)CC4)ncc3Cl)ccc2n(C(C)C)c1=O` [Compound 380, 2-({6-[(5-chloro-2-{4-[(1r,3r)-3-(4-{2-[(3S)-2,6-dioxopiperidin-3-yl]-4-fluoro-1-oxo-2,3-dihydro-1H-isoindol-5-yl}piperidin-1-yl)cyclobutoxy]piperidin-1-yl}pyrimidin-4-yl)amino]-5-fluoro-2-oxo-1-(propan-2-yl)-1,2-dihydroquinolin-3-yl}oxy)-N-methylacetamide] were, in that order, 50 to 70% and less than 10 nM.
In the same order, the values of `CNC(=O)COc1cc2c(F)c(Nc3nc(N4CCC(O[C@H]5C[C@H](N6CCC(c7ccc8c(c7F)CN([C@@H]7CCC(=O)NC7=O)C8=O)CC6)C5)CC4)ncc3Cl)ccc2n(C(C)C)c1=O` [Compound 381, 2-({6-[(5-chloro-2-{4-[(1r,3r)-3-(4-{2-[(3R)-2,6-dioxopiperidin-3-yl]-4-fluoro-1-oxo-2,3-dihydro-1H-isoindol-5-yl}piperidin-1-yl)cyclobutoxy]piperidin-1-yl}pyrimidin-4-yl)amino]-5-fluoro-2-oxo-1-(propan-2-yl)-1,2-dihydroquinolin-3-yl}oxy)-N-methylacetamide] are no less than 70% and less than 10 nM.
The like results for `CNC(=O)COc1cc2cc(Nc3nc(N4CCC(F)(CN5CCC6(CC5)CN(c5ccc7c(c5)CN(C5CCC(=O)NC5=O)C7=O)C6(C)C)CC4)ncc3Cl)ccc2n(C(C)C)c1=O` (stereo not drawn) [Compound 382, 2-{[6-({5-chloro-2-[4-({2-[2-(2,6-dioxopiperidin-3-yl)-1-oxo-2,3-dihydro-1H-isoindol-5-yl]-1,1-dimethyl-2,7-diazaspiro[3.5]nonan-7-yl}methyl)-4-fluoropiperidin-1-yl]pyrimidin-4-yl}amino)-2-oxo-1-(propan-2-yl)-1,2-dihydroquinolin-3-yl]oxy}-N-methylacetamide] were, in that order, no less than 70% and less than 10 nM.
In the case of `CNC(=O)COc1cc2cc(Nc3nc(N4CCC(OC5CCC6(CC5)CN(c5ccc7c(c5Cl)CN(C5CCC(=O)NC5=O)C7=O)C6)CC4)ncc3Cl)ccc2n(C(C)C)c1=O` (stereo not drawn) [Compound 383, 2-{[6-({5-chloro-2-[4-({2-[4-chloro-2-(2,6-dioxopiperidin-3-yl)-1-oxo-2,3-dihydro-1H-isoindol-5-yl]-2-azaspiro[3.5]nonan-7-yl}oxy)piperidin-1-yl]pyrimidin-4-yl}amino)-2-oxo-1-(propan-2-yl)-1,2-dihydroquinolin-3-yl]oxy}-N-methylacetamide], the Dmax is no less than 70% and the DC50 was less than 10 nM.
